Data as given in patent US20250302948A1, “DR5 Agonist and IAP Antagonist Combination Therapy” (Inhibrx Biosciences, Inc., priority 2022, published 2025).

Key:
SW620 = test: CellTiter-Glo cell viability, 48 h (Examples 1, 2); assay type: cell-based; details: Homo sapiens, SW-620
From the text: (§1) Test Article Preparation for INBRX-109.
(§2) Day 2—Test and Control Article Addition.
(§3) Day 4—Viability Measurements. […] Data was graphed in GraphPad Prism 7.

HT-29 = test: CellTiter-Glo cell viability, 48 h (Example 1); assay type: cell-based; details: Homo sapiens
From the text: as §1, §2, §3

LS411N = test: CellTiter-Glo cell viability, 48 h (Example 1); assay type: cell-based; details: Homo sapiens, LS-411N
From the text: as §1, §2, §3

SNU-C2B = test: CellTiter-Glo cell viability, 48 h (Example 1); assay type: cell-based; details: Homo sapiens
From the text: as §1, §2, §3

NCI-H460 = test: Cytotoxicity on lung cancer cell lines, assay similar to Example 1 (Example 4); details: Homo sapiens
Procedure: (§4) Day 1-Cell Seeding. Monolayer cultures of each cell line were harvested for compound screening as detailed below. Culture medium was aspirated, and the cells were washed once with PBS. Accutase was added and flasks were incubated at 37° C. until cells became detached. An equal volume of complete medium was added to quench the Accutase, and the cells were then pipetted up and down several times to generate a homogenous single cell suspension. The density and viability of cells was determined by Trypan Blue using a TC20 Automated Cell Counter. Experimental cells were resuspended to a concentration of 0.17×10^6/mL in EMEM/10% FBS/Anti-Anti media (complete EMEM) and seeded in the inner wells of 384-well luminescence plates at 15 μL/well (2,500/well final). Each cell line was plated in duplicate on separate plates. […]
(§5) Day 4—Viability Measurements. […] Any visible bubbles were removed with 100% ethanol vapor, then luminescence (RLU) was read on the Spectra Max M5e plate reader, using the 384-well opaque plate setting and SoftMaxPro v5.4 software with an integration time of 50 milliseconds. To determine the effect of test articles on cell viability, raw RLU values were exported to Excel and percent survival was calculated as a percentage of vehicle control (0.2% DMSO in EMEM), where the vehicle control is set at 100%. […]

HCC2935 = test: as above; details: Homo sapiens
Procedure: as §4, §5

NCI-H23 = test: as above; details: Homo sapiens
Procedure: as §4, §5

NCI-H2452 = test: as above; details: Homo sapiens
Procedure: as §4, §5

A549 = test: as above; details: Homo sapiens
Procedure: as §4, §5

CAL-120 = test: Cytotoxicity on breast cancer cell lines, assay similar to Example 3 (Example 4); details: Homo sapiens
Procedure: (§6) Two duplicate plates were set up for day 0 reading (T0) and for reading at the end point (T48).
(§7) To generate a 10× working dilution plate of the small molecules, a 1:100 dilution was performed from the 1000× plate into the appropriate media.
(§8) Day 2—Compound Treatment. […] The plates were then incubated in a 37° C. humidity-controlled tissue culture incubator (5% CO2).
(§9) 20 μL culture medium containing 1% DMSO and 50 μL CellTiter-Glo® Reagent was added to each well of the TO plates and the contents mixed, plate was incubated at room temperature for 30 min, and read on an En Vision Multi Label Reader.
(§10) Day 4—Viability Measurements. 50 μL CellTiter-Glo® Reagent was added to each well of the T48 plates and the contents mixed, plate was incubated at room temperature for 30 min, and read on an EnVision Multi Label Reader. The formula for calculating percent survival is: % survival=(LumTest article−LumMedium control)/(LumNone treated−LumMedium control)×100%. Percent cytotoxicity was calculated by subtracting the % survival from 100.

MX = test: as above
Procedure: as §6, §7, §8, §9, §10

BT-20 = test: as above; details: Homo sapiens
Procedure: as §6, §7, §8, §9, §10

BT-549 = test: as above; details: Homo sapiens
Procedure: as §6, §7, §8, §9, §10

HCC1937 = test: as above; details: Homo sapiens
Procedure: as §6, §7, §8, §9, §10

SUM159PT = test: as above; details: Homo sapiens, SUM-159-PT
Procedure: (§11) Day 1—Cell Seeding. Monolayer cultures of each cancer cell line (see Table 7) were harvested during the logarithmic growth period. The density and viability of cells was determined by Trypan Blue using a Vi cell counter, cells were diluted in the appropriate growth media (see Table 7) and 90 μL cell suspensions were added to 96-well plates for compound screening as detailed below. Two duplicate plates were set up for day 0 reading (T0) and for reading at the end point (T48).
as §7, §8, §9
(§12) Day 4—Viability Measurements. 50 μL CellTiter-Glo® Reagent was added to each well of the T48 plates and the contents mixed, plate was incubated at room temperature for 30 min, and read on an EnVision Multi Label Reader. […] Percent cytotoxicity was calculated by subtracting the % survival from 100.

HCC70 = test: as above; details: Homo sapiens
Procedure: as §11, §7, §8, §9, §12

HCC1806 = test: as above; details: Homo sapiens
Procedure: as §11, §7, §8, §9, §12

HCC1187 = test: as above; details: Homo sapiens
Procedure: as §11, §7, §8, §9, §12

DU4475 = test: as above; details: Homo sapiens, DU-4475
Procedure: as §11, §7, §8, §9, §12

CAL-51 = test: as above; details: Homo sapiens
Procedure: (§13) Day 1—Cell Seeding. […] Two duplicate plates were set up for day 0 reading (T0) and for reading at the end point (T48).
as §7, §8, §9, §10

HCC1395 = test: as above; details: Homo sapiens
Procedure: as §13, §7, §8, §9, §10

HS 578T = test: as above; details: Homo sapiens
Procedure: as §13, §7, §8, §9, §10

CAL-78 = test: Cytotoxicity on chondrosarcoma cell lines, assay similar to Example 1 (Example 4)
Procedure: as §4, §5

OUMS-27 = test: as above
Procedure: as §4, §5

SW1353 = test: as above; details: Homo sapiens
Procedure: as §4, §5

H-EMC-SS = test: as above
Procedure: as §4, §5

NCI-N87 = test: Cytotoxicity on gastric cancer cell lines, assay similar to Example 1 (Example 4); details: Homo sapiens
Procedure: as §4
(§14) Day 4—Viability Measurements. […] Any visible bubbles were removed with 100% ethanol vapor, then luminescence (RLU) was read on the Spectra Max M5e plate reader, using the 384-well opaque plate setting and SoftMaxPro v5.4 software with an integration time of 50 milliseconds. To determine the effect of test articles on cell viability, raw RLU values were exported to Excel and percent survival was calculated as a percentage of vehicle control (0.2% DMSO in EMEM), where the vehicle control is set at 100%.

SNU-5 = test: as above; details: Homo sapiens
Procedure: as §4, §14

SNU-1 = test: as above; details: Homo sapiens, SNU1
Procedure: as §4, §14

AsPC-1 = test: Cytotoxicity on pancreatic cancer cell lines, assay similar to Example 1 (Example 4); details: Homo sapiens, ASPC1
Procedure: as §4, §14

Panc-1 = test: as above; details: Homo sapiens
Procedure: as §4, §14

MIA-PaCa-2 = test: as above; details: Homo sapiens
Procedure: as §4, §5

SW1990 = test: as above; details: Homo sapiens
Procedure: as §4, §5

## CC[C@H](NC(=O)[C@H](C)NC)C(=O)N1C[C@@H](O)C[C@H]1Cc1c(-c2[nH]c3cc(F)ccc3c2C[C@@H]2C[C@H](O)CN2C(=O)[C@H](CC)NC(=O)[C@H](C)NC)[nH]c2cc(F)ccc12 [Birinapant, birinapant]
SW620
  cytotoxicity at 5 µM: 11.7%
HT-29
  cytotoxicity at 5 µM: 20.4%
LS411N
  cytotoxicity at 5 µM: 14.3%
SNU-C2B
  cytotoxicity at 5 µM: 71.1%
NCI-H460
  cytotoxicity at 2 µM: 6.55%
HCC2935
  cytotoxicity at 2 µM: 13.9%
NCI-H23
  cytotoxicity at 2 µM: 9.3%
NCI-H2452
  cytotoxicity at 2 µM: 6.11%
A549
  cytotoxicity at 2 µM: 11.3%
CAL-120
  cytotoxicity at 3.16 µM: 2.75%
MX
  cytotoxicity at 3.16 µM: -7.11%
BT-20
  cytotoxicity at 3.16 µM: 6.51%
BT-549
  cytotoxicity at 3.16 µM: 6.85%
HCC1937
  cytotoxicity at 3.16 µM: -2.77%
SUM159PT
  cytotoxicity at 3.16 µM: -1.7%
HCC70
  cytotoxicity at 3.16 µM: 34%
HCC1806
  cytotoxicity at 3.16 µM: 5.17%
HCC1187
  cytotoxicity at 3.16 µM: 36%
DU4475
  cytotoxicity at 3.16 µM: 14.3%
CAL-51
  cytotoxicity at 3.16 µM: 2.35%
HCC1395
  cytotoxicity at 3.16 µM: 8.93%
HS 578T
  cytotoxicity at 3.16 µM: 12.7%
CAL-78
  cytotoxicity at 2 µM: 14%
OUMS-27
  cytotoxicity at 2 µM: -0.15%
SW1353
  cytotoxicity at 2 µM: 0.1%
H-EMC-SS
  cytotoxicity at 2 µM: 31.1%
NCI-N87
  cytotoxicity at 2 µM: 1.82%
SNU-5
  cytotoxicity at 2 µM: 59.6%
SNU-1
  cytotoxicity at 2 µM: 7.62%
AsPC-1
  cytotoxicity at 2 µM: 9.46%
Panc-1
  cytotoxicity at 2 µM: 11.7%
MIA-PaCa-2
  cytotoxicity at 2 µM: 9.17%
SW1990
  cytotoxicity at 2 µM: 10.4%
